Earlier results on one substance are cited in patent US20050152951A1, “Liquid, eye-instillable preparations comprising sodium hyaluronate” (priority 2001, published 2005).

The conditions of the data set: water retained by 1 gram of SH.

For Sodium hyaluronate [SH], the water retention entry is recorded as “up to 6 litres”.
